# Legend:
# [1] = tested on: quiescent Swiss 3T3 cells; experiment: Compounds' effect on the actin cytoskeleton (Rac-induced ruffles); assay type: cell-based; conditions: 30 min pre-treatment, subtoxic doses; osmotic shock 10 min (50% H2O)
# Procedure: FIG. 1: Study of compounds effect on the actin cytoskeleton. Quiescent Swiss 3T3 cells were treated for 30 minutes with various concentrations of the compounds and were then submitted to osmotic shock by 10 min. incubation in a medium containing 50% H2O. Cells were subsequently fixed, permeabilized and labeled with Phalloidin TRITC. 100 to 200 cells were counted under a microscope, and the percentage of cells displaying lamellipodia and ruffles was evaluated.
# Quiescence of Swiss 3T3 cells: Cells are seeded at high density on coverslips in 5% FCS medium (special weak FCS). When cells become quiescent (after 6-10 days of culture), the medium is removed (a few microliters remaining in the well) and replaced with serum free medium. Cells are placed in the incubator overnight. […]
# Immunofluorescence • Fixation and permeabilization: Medium is aspirated from the culture wells and replaced with fixation buffer (BRB80: 80 mM KPipes pH 6.8, 2 mM MgCl2, 5 mM EGTA, 0.3% paraformaldehyde). […] Mounting is allowed to dry at 37° C. for 1 h. • Quantification of the effect of the compounds: The total number of cells is counted under the microscope (at least three different fields, e.g. between 100 and 200 cells). The number of cells bearing the morphological features of interest is evaluated. The percentage of cells bearing the morphological features of interest is then calculated.
# MDA-MB-231 = experiment: Boyden chamber migration assay, MDA-MB-231; assay type: cell-based, human; conditions: Homo sapiens, FBS as chemoattractant
# Procedure: FIG. 4: Migration assays. (A) Wound healing assay in REF cells. 7.6 10^4 cells were plated on coverslips 48 hours before the experiment. The cells were pre-treated for 30 min. with the compounds, and then a scrape was done using a pipette tip. The scraped coverslips in treatment medium were put under a thermostated microscope coupled to a video camera. Movies were analyzed as described in material and methods, and velocity and total distance covered by the cells were evaluated. Bar graphs represent the mean±SEM of 2 to 4 experiments. (B) Boyden chamber migration assay in HMEC1, NIH3T3 and MDA-MB-231 cells. 5 10^4 to 7.5 10^4 Cells, resuspended in culture medium with or without FBS and with different compound concentrations, were seeded in the upper Boyden blind well on top of 8 μm pore-sized filters. The ability of the cells to migrate through the filter was assayed in the absence or presence of FBS in the lower Boyden chamber. After 16 hours incubation, the medium was removed and replaced with calcein-AM containing medium. After labeling, cells were washed with HBSS and fluorescence was read in a fluorescence plate reader. Fluorescence values were normalized against the fluorescence obtained for the 1% DMSO control. The data plotted are the means±SEM of 2 to 4 independent experiments.
# An essential characteristic of malignant cells is their ability to migrate, invade host tissues and to produce metastases. In order to evaluate the capacity of one compound to affect the ability of tumoral cells to migrate, migration assays were performed using highly invasive tumoral cells MDA-MB-231, endothelial cells HMEC1 or fibroblastic cells NIH3T3. This assay was performed using Falcon HTS Fluoroblock inserts. Culture medium containing Fetal Bovine Serum (FBS; which is used as a chemoattractant) was added to the plate wells and 2 10^4 to 7.5 10^4 cells resuspended in medium without FBS and with 0.1% BSA were added to each insert well. The compound of interest was added to the medium in both the upper and the lower chambers. Plates were incubated for 16 hours at 37° C. Following incubation, the medium was removed from the upper chamber and the entire insert plate was transferred to a second 24-well plate containing 4 μg/ml Calcein-AM™ in medium containing 0.1% BSA. The plates were incubated for one hour at 37° C., rinsed with Hanks Buffered Saline (HBSS). Fluorescence data were collected using Fluoroskan Ascent FL fluorescence plate reader at an excitation wavelength (Ex) of 485 nm and emission wavelength (Em) of 517 nm. Only those labelled cells that passed through the Matrigel layer and the membrane were detected. Data were analyzed using the GraphPad Prism software and IM50s (dose at which 50% inhibition of cell migration is observed) were calculated.
# [2] = Screening in vivo rising and repeated-dose toxicity study in rats; conditions: for body weight: at 300 mg/kg/day p.o.; for biological changes (hematology and blood biochemistry) / clinical signs / death during the study / tolerability: p.o. 10, 50, 300 mg/kg per day, 3 days each
# Procedure: Screening in vivo rising and repeated-dose toxicity study in rats was performed on 3 rats per compound with the following schedule: • a. day 1 to day 3: 10 mg/kg p.o. per day, • b. day 4 to day 6: 50 mg/kg p.o. per day, • c. day 7 to day 9: 300 mg/kg p.o. per day.
# Clinical signs, bodyweight, food consumption, and blood parameters were followed.
Structure (SMILES),formation of ruffles induced by Rac after osmotic shock [1],"IC50 (MDA-MB-231; MDA-MB-231, 16 h) [µM]",body weight [2],biological changes (hematology and blood biochemistry) [2],clinical signs [2],death during the study [2],tolerability [2],"IC50 (MDA-MB-231; MDA-MB-231, 16 hours) [µM]"
"CN1CCN(Cc2cc(=O)c(OCCCCCSc3ccnc4cc(C(F)(F)F)ccc34)co2)CC1.Cl.Cl.Cl [EHT 9241, 5-(5-(7-(Trifluoromethyl)quinolin-4-ylthio)pentyloxy)-2-((4-methylpiperazin-1-yl)methyl)-4H-pyran-4-one trihydrochloride]",dose-dependently prevents formation of ruffles,2.7 ± 1,mean body weight loss,Some limited biological changes,Minimal clinical signs,No death occurred,quite well tolerated up to 300 mg/kg/day,
"Cl.Cl.O=c1cc(CN2CCOCC2)occ1OCCCCCSc1ccnc2cc(C(F)(F)F)ccc12 [EHT 1864, 5-(5-(7-(Trifluoromethyl)quinolin-4-ylthio)pentyloxy)-2-(morpholinomethyl)-4H-pyran-4-one dihydrochloride]",dose-dependently prevents formation of ruffles,,mean body weight loss,Some limited biological changes,Minimal clinical signs,No death occurred,quite well tolerated up to 300 mg/kg/day,5.1 ± 1.9
"Cl.Cl.Cl.O=c1cc(CN2CCNCC2)occ1OCCCCCSc1ccnc2cc(C(F)(F)F)ccc12 [EHT 8560, 5-(5-(7-(Trifluoromethyl)quinolin-4-ylthio)pentyloxy)-2-((piperazin-1-yl)methyl)-4H-pyran-4-one trihydrochloride]",,4.5 ± 2.4,mean body weight loss,Some limited biological changes,Minimal clinical signs,No death occurred,quite well tolerated up to 300 mg/kg/day,

# From patent publication US7514432B2, “Compounds and methods of treating cell proliferative diseases, retinopathies and arthritis” (Exonhit Therapeutics SA, priority 2003, dated 2009)
